Laboratory results from patent publication US12240862B2, “Inhibitors of peptidylarginine deiminases” (Gilead Sciences, Inc., priority 2020, dated 2025).

Target: T1, human PAD4 (Homo sapiens, UniProt Q9UM07)
T1 construct: human PAD4 (NM_012387), A2P663, was PCR amplified; His-SUMO (N, cleaved yes); made in house; host or cells: E. coli BL21(DE3)
Assay: In vitro PAD4 BAEE biochemical assay
Settings: human PAD4, BAEE substrate; 5 nM PAD4, 2 mM calcium chloride, 3 mM BAEE; geometric mean of multiple experiments
Procedure, shortened: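 Ammonia release from BAEE deimination monitored by o-phthalaldehyde amine coupling (1 h, 25 °C) after EDTA stop. Final conditions: 5 nM tag-free recombinant human PAD4 (E. coli), 2 mM CaCl2, 3 mM BAEE, pH 7.6 MOPS with DTT; 30 min compound preincubation, then 2 h reaction at 25 °C.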

T1 sequence (Q9UM07 2-663): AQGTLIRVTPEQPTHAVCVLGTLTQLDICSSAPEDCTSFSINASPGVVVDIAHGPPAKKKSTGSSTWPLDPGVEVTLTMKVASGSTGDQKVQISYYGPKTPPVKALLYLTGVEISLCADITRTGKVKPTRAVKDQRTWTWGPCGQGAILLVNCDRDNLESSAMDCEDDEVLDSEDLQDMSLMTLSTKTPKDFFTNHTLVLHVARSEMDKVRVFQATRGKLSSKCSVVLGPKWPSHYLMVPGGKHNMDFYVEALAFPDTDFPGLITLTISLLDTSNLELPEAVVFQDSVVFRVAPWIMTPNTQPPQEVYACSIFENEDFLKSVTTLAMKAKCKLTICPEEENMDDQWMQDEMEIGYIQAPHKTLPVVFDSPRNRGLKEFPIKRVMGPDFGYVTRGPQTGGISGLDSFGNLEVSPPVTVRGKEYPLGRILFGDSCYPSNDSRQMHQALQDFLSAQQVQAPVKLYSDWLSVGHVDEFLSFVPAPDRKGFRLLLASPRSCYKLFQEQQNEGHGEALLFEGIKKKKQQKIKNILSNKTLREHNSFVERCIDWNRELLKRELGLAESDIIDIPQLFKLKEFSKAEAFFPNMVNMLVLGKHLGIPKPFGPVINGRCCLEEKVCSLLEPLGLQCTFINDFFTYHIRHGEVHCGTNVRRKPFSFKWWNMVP

| Molecule | IC50 |
| --- | --- |
| COc1cc(C(=O)N2[C@H]3CC[C@@H]2[C@H](N)C3)cc2nc(-c3cc4ccc([C@@H](C)N5CCN(C)C5=O)nc4n3CC3CC3)c(C)n12 [Example 270, 1-[(1~{R})-1-[2-[7-[(1~{R},2~{R},4~{S})-2-amino-7-azabicyclo[2.2.1]heptane-7-carbonyl]-5-methoxy-3-methylimidazo [1,2-a]pyridin-2-yl]-1-(cyclopropylmethyl)pyrrolo [2,3-b]pyridin-6-yl]ethyl]-3-methylimidazolidin-2-one] | 34.7 nM |
| COc1cc(C(=O)N2[C@H]3CC[C@@H]2[C@H](N)C3)cc2nc(-c3cc4ccc(C(C)C#N)nc4n3CC3CC3)c(C)n12 (some centres unmarked) [Example 568, 2-[2-[7-[(1~{R},2~{R}, 4~{S})-2-amino-7-azabicyclo[2.2.1]heptane-7-carbonyl]-5-methoxy-3-methylimidazo[1,2-a]pyridin-2-yl]-1-(cyclopropylmethyl)pyrrolo [2,3-b]pyridin-6-yl] propanenitrile] | 133 nM |
| COc1cc(C(=O)N2[C@H]3CC[C@@H]2[C@H](N)C3)cc2nc(-c3cc4ccc([C@@H](C)NC(=O)NC5CC6(CC6)C5)nc4n3CC3CC3)c(C)n12 [Example 204, 1-[(1~{R})-1-[2-[7-[(1~{R},2~{R},4~{S})-2-amino-7-azabicyclo[2.2.1]heptane-7-carbonyl]-5-methoxy-3-methylimidazo [1,2-a]pyridin-2-yl]-1-(cyclopropylmethyl)pyrrolo [2,3-b]pyridin-6-yl]ethyl]-3-spiro[2.3]hexan-5-ylurea] | 30.1 nM |
| COc1cc(C(=O)N2[C@H]3CC[C@@H]2[C@H](N)C3)cc2nc(-c3cc4ccc([C@@H](C)NC(=O)C5CC6(CC6)C5)nc4n3CC3CC3)c(C)n12 [Example 55, ~{N}-[(1~{R})-1-[2-[7-[(1~{R},2~{R},4~{S})-2-amino-7-azabicyclo [2.2.1]heptane-7-carbonyl]-5-methoxy-3-methylimidazo [1,2-a]pyridin-2-yl]-1-(cyclopropylmethyl)pyrrolo[2,3-b]pyridin-6-yl]ethyl] spiro[2.3]hexane-5-carboxamide] | 52.6 nM |
| COc1cc(C(=O)N2[C@H]3CC[C@@H]2[C@H](N)C3)cc2nc(-c3cc4ccc(N5[C@@H](C)CCCS5(=O)=O)nc4n3CC3CC3)c(C)n12 [Example 462, ((1R,2R,4S)-2-amino-7-azabicyclo[2.2.1]heptan-7-yl)(2-(1-(cyclopropylmethyl)-6-((S)-3-methyl-1,1-dioxido-1,2-thiazinan-2-yl)-1H-pyrrolo[2,3-b]pyridin-2-yl)-5-methoxy-3-methylimidazo[1,2-a]pyridin-7-yl)methanone] | 39.7 nM |
| CCc1ccc2cc(-c3nc4cc(C(=O)N5[C@H]6CC[C@@H]5[C@H](N)C6)cc(OC)n4c3C)n(CC3CC3)c2n1 [Example 584, [(1~{R},2~{R},4~{S})-2-amino-7-azabicyclo [2.2.1]heptan-7-yl]-[2-[1-(cyclopropylmethyl)-6-ethylpyrrolo[2,3-b]pyridin-2-yl]-5-methoxy-3-methylimidazo[1,2-a]pyridin-7-yl]methanone] | 84.5 nM |
| ~{N}-[(1~{R})-1-[2-[7- [(1~{R},2~{R},4~{S})-2- amino-7- azabicyclo[2.2.1]heptane- 7-carbonyl]-3-cyclopropyl- 5-methoxyimidazo [1,2-a]pyridin-2-yl]-1-(1- bicyclo[1.1.1] pentanylmethyl)pyrrolo [2,3-b]pyridin-6-yl]ethyl]- 3-fluorobicyclo[1.1.1] pentane-1-carboxamide [Example 487] | 331 nM |
| COc1cc(C(=O)N2[C@H]3CC[C@@H]2[C@H](N)C3)cc2nc(-c3cc4ccc([C@@H](C)NC(=O)NCc5ccncc5)nc4n3CC3CC3)c(C)n12 [Example 223, 1-[(1~{R})-1-[2-[7-[(1~{R},2~{R},4~{S})-2-amino-7-azabicyclo[2.2.1]heptane-7-carbonyl]-5-methoxy-3-methylimidazo [1,2-a]pyridin-2-yl]-1-(cyclopropylmethyl)pyrrolo [2,3-b]pyridin-6-yl]ethyl]-3-(pyridin-4-ylmethyl)urea] | 77.3 nM |
| COc1cc(C(=O)N2[C@H]3CC[C@@H]2[C@H](N)C3)cc2nc(-c3cc4ccc(OCC(=O)N(C)C)nc4n3CC3CC3)c(C)n12 [Example 624, 2-[2-[7-[(1~{R},2~{R}, 4~{S})-2-amino-7-azabicyclo[2.2.1]heptane-7-carbonyl]-5-methoxy-3-methylimidazo[1,2-a]pyridin-2-yl]-1-(cyclopropylmethyl)pyrrolo [2,3-b]pyridin-6-yl] oxy-~{N},~{N}-dimethylacetamide] | 114 nM |
| CCc1ccc2cc(-c3nc4cc(C(=O)N5CCC[C@@H](N)C5)cc(OC)n4c3C)n(CC3CC3)c2c1F [Example 586, [(3~{R})-3-aminopiperidin-1-yl]-[2-[1-(cyclopropylmethyl)-6-ethyl-7-fluoroindol-2-yl]-5-methoxy-3-methylimidazo [1,2-a]pyridin-7-yl]methanone] | 3210 nM |
| COc1cc(C(=O)N2CCC[C@@H](N)C2)cc2nc(-c3cc4ccc(-c5ccc(N)nc5C)nc4n3CC3CC3)c(C)n12 [Example 605, [2-[6-(6-amino-2-methylpyridin-3-yl)-1-(cyclopropylmethyl)pyrrolo[2,3-b]pyridin-2-yl]-5-methoxy-3-methylimidazo[1,2-a]pyridin-7-yl]-[(3~{R})-3-aminopiperidin-1-yl]methanone] | 518 nM |
| COc1cc(C(=O)N2C[C@@H]3CNCC[C@@H]32)cc2nc(-c3cc4ccc(N(C(F)F)S(C)(=O)=O)nc4n3CC3CC3)c(C)n12 [Example 283, ~{N}-[1-(cyclopropylmethyl)-2-[7-[(1~{S},6~{S})-3,7-diazabicyclo[4.2.0]octane-7-carbonyl]-5-methoxy-3-methylimidazo[1,2-a]pyridin-2-yl]pyrrolo[2,3-b]pyridin-6-yl]-~{N}-(difluoromethyl) methanesulfonamide] | 11700 nM |

Second part, the molecule after the results:

| IC50 | Molecule |
| --- | --- |
| 110 nM | COc1cc(C(=O)N2[C@H]3CC[C@@H]2[C@H](N)C3)cc2nc(-c3cc4ccc(C(C)(C)O)nc4n3CC3CC3)c(C)n12 [Example 574, [(1~{R},2~{R},4~{S})-2-amino-7-azabicyclo [2.2.1]heptan-7-yl]-[2-[1-(cyclopropylmethyl)-6-(2-hydroxypropan-2-yl)pyrrolo [2,3-b]pyridin-2-yl]-5-methoxy-3-methylimidazo[1,2-a]pyridin-7-yl]methanone] |
| 62 nM | COc1cc(C(=O)N2[C@H]3CC[C@@H]2[C@H](N)C3)cc2nc(-c3cc4ccc([C@@H](C)NC(=O)N(C)C(C)c5cccnc5)nc4n3CC3CC3)c(C)n12 (some centres unmarked) [Example 221, 3-[(1~{R})-1-[2-[7-[(1~{R},2~{R},4~{S})-2-amino-7-azabicyclo[2.2.1]heptane-7-carbonyl]-5-methoxy-3-methylimidazo [1,2-a]pyridin-2-yl]-1-(cyclopropylmethyl)pyrrolo [2,3-b]pyridin-6-yl]ethyl]-1-methyl-1-(1-pyridin-3-ylethyl)urea] |
| 1420 nM | COc1cc(C(=O)N2[C@@H]3CCC[C@H]2[C@@H](N)C3)cc2nc(-c3cc4ccc(N(C(F)F)S(C)(=O)=O)nc4n3CC3CC3)c(C)n12 [Example 331, N-[2-[7-[(1R,5S,6S)-6-amino-8-azabicyclo[3.2.1]octane-8-carbonyl]-5-methoxy-3-methyl-imidazo [1,2-a]pyridin-2-yl]-1-(cyclopropylmethyl)pyrrolo [2,3-b]pyridin-6-yl]-N-(difluoromethyl) methanesulfonamide] |
| 68.7 nM | COc1cc(C(=O)N2[C@H]3CC[C@@H]2[C@H](N)C3)cc2nc(-c3cc4ccc([C@@H](C)NC(=O)CCS(C)(=O)=O)nc4n3CC3CC3)c(C)n12 [Example 153, ~{N}-[(1~{R})-1-[2-[7-[(1~{R},2~{R},4~{S})-2-amino-7-azabicyclo[2.2.1]heptane-7-carbonyl]-5-methoxy-3-methylimidazo [1,2-a]pyridin-2-yl]-1-(cyclopropylmethyl)pyrrolo [2,3-b]pyridin-6-yl]ethyl]-3-methylsulfonylpropanamide] |
| 68.4 nM | COc1cc(C(=O)N2[C@H]3CC[C@@H]2[C@H](N)C3)cc2nc(-c3cc4ccc([C@@H](C)NC(=O)C(C)(O)C(C)C)nc4n3CC3CC3)c(C)n12 (some centres unmarked) [Example 93, ~{N}-[(1~{R})-1-[2-[7-[(1~ {R},2~{R},4~{S})-2-amino-7-azabicyclo[2.2.1]heptane-7-carbonyl]-5-methoxy-3-methylimidazo [1,2-a]pyridin-2-yl]-1-(cyclopropylmethyl)pyrrolo [2,3-b]pyridin-6-yl]ethyl]-2-hydroxy-2,3-dimethylbutanamide] |
| 30.4 nM | CCCC(=O)N[C@H](C)c1ccc2cc(-c3nc4cc(C(=O)N5[C@H]6CC[C@@H]5[C@H](N)C6)cc(OC)n4c3C)n(CC3CC3)c2n1 [Example 90, ~{N}-[(1~{R})-1-[2-[7-[(1~{R},2~{R},4~{S})-2-amino-7-azabicyclo[2.2.1]heptane-7-carbonyl]-5-methoxy-3-methylimidazo [1,2-a]pyridin-2-yl]-1-(cyclopropylmethyl)pyrrolo [2,3-b]pyridin-6-yl]ethyl]butanamide] |
| 300 nM | COc1cc(C(=O)N2CCC[C@@H](N)C2)cc2nc(-c3cc4ccc([C@@H](C)N(C)C(C)=O)nc4n3CC3CC3)c(C)n12 [Example 187, ~{N}-[(1~{R})-1-[2-[7-[(3~{R})-3-aminopiperidine-1-carbonyl]-5-methoxy-3-methylimidazo [1,2-a]pyridin-2-yl]-1-(cyclopropylmethyl)pyrrolo [2,3-b]pyridin-6-yl]ethyl]-~{N}-methylacetamide] |
| 43600 nM | COc1cc(C(=O)N2C[C@H]3CC[C@@H]2[C@@H](N)C3)cc2nc(-c3cc4ccc(N(C(F)F)S(C)(=O)=O)nc4n3CC3CC3)c(C)n12 [Example 368, ~{N}-[2-[7-[(1~{R},4~{S}, 6~{S})-6-amino-2-azabicyclo[2.2.2]octane-2-carbonyl]-5-methoxy-3-methylimidazo[1,2-a]pyridin-2-yl]-1-(cyclopropylmethyl)pyrrolo [2,3-b]pyridin-6-yl]-~{N}-(difluoromethyl) methanesulfonamide] |
